Results from patent US9271929B2, “Block copolymers and uses thereof” (École Polytechnique Fédérale de Lausanne (EPFL), priority 2008, dated 2016).

Legend:
[1] = Encapsulation efficiency of small molecule pharmaceutical agents using excipient formulations; type: physicochemical; details: PEG-PPS system
Method: Samples used in Table 2 were prepared as follows. 10 mg of PEG-PPS was added to a 1.5 mL centrifuge tube with either 90 mg of PEG600 or DBU-HCl, and 2 mg of either paclitaxel or dexamethasone. This was heated at 95° C. for 15 min and mixed thoroughly. After cooling to RT, the blend was slowly diluted to 1 mL with distilled water. The free pharmaceutical agent was pelleted via centrifugation for 10 minutes at 10,000 g, and the pellet and supernatant were separately freeze dried, and analyzed in THF via gel permeation chromatography. Dexamethasone and paclitaxel results were quantified using a standard curve.

[2] = system: caco-2 cells (enterocytes) and lymphatic endothelial cells (LECs); assay: Transport in coculture model of gut lymphatic uptake; type: in vitro ADME; details: caco-2/LEC coculture
Method: Given that PEG-PPS nanoparticles can survive harsh conditions such as gastric pH, we contemplated their transport in the gut lymphatics, determining their potential to be processed by mechanisms related to fat uptake in the gut. This was measured using a coculture model of caco-2 cells (enterocytes) and lymphatic endothelial cells (LECs), allowing full characterization of uptake, packaging, and transit (collectively referred to as transport). It was determined that the surface characteristics of PPS-based nanoparticles can be engineered to provide for effective transport: for example, particles on which about 10% of the terminal chain groups were substituted with a carboxyl functionality were transported at a level 5-fold higher than that of equivalent particles lacking a surface charge. Other surface charging moieties, such as sulfates and sulfones, are similarly effective after optimization.

Compound	Encapsulation, method of the invention versus solvent dispersion [1]	Uptake / transport [2]
CO[C@H]1C[C@@H]2CC[C@@H](C)[C@@](O)(O2)C(=O)C(=O)N2CCCC[C@H]2C(=O)O[C@H]([C@H](C)C[C@@H]2CC[C@@H](OCCO)[C@H](OC)C2)CC(=O)[C@H](C)/C=C(\C)[C@@H](O)[C@@H](OC)C(=O)[C@H](C)C[C@H](C)/C=C/C=C/C=C/1C [everolimus]	efficiently encapsulated	–
C[C@@H]1[C@H](O)[C@@H](C)/C=C/C=C/C=C/C=C/C=C/C=C/C=C/[C@H](O[C@@H]2O[C@H](C)[C@@H](O)[C@H](N)[C@@H]2O)C[C@@H]2O[C@](O)(C[C@@H](O)C[C@@H](O)[C@H](O)CC[C@@H](O)C[C@@H](O)CC(=O)O[C@H]1C)C[C@H](O)[C@H]2C(=O)O [amphotericin B]	more efficiently encapsulated via solvent dispersion	–
dextran	–	not well transported
CC(=O)O[C@H]1C(=O)[C@@]2(C)[C@H]([C@H](OC(=O)c3ccccc3)[C@]3(O)C[C@H](OC(=O)[C@H](O)[C@@H](NC(=O)c4ccccc4)c4ccccc4)C(C)=C1C3(C)C)[C@]1(OC(C)=O)CO[C@@H]1C[C@@H]2O [paclitaxel]	more efficiently encapsulated via the method of the invention	–
